# Results reported in PMC4744088 (Journal of biomolecular screening, 2015).
# Experiment: "true hits" assay alpha screen signal
# Conditions: indicates false positive
smiles,measurement,value
Nc1c(S(=O)(=O)O)cc(Nc2ccc(Nc3nc(Cl)nc(Nc4cccc(S(=O)(=O)O)c4)n3)c(S(=O)(=O)O)c2)c2c1C(=O)c1ccccc1C2=O [Reactive blue 2],"inhibition of the ""true hits"" assay alpha screen signal",greater than 50%
